Measurements taken from US20210244698A1, “DIFFUSION ENHANCING COMPOUNDS AND THEIR USE WITH THROMBECTOMY AND EMBOLECTOMY AND OTHER VASCULAR DISEASE PROCEDURES” (DIFFUSION PHARMACEUTICALS LLC, priority 2018, published 2021).

Key:
[1] = Solubility of TSC in water / aqueous solution with cyclodextrin; format: physicochemical
Text: (§1) The use of gamma-cyclodextrin with TSC increases the solubility of TSC in water by 3-7 times. […] The solutions need not be equal-molar. The incorporation of the gamma cyclodextrin also allows for TSC to be absorbed into the blood stream when injected intramuscularly.
A trans carotenoid such as TSC can be formulated with a cyclodextrin as noted above and a non-metabolized sugar such as mannitol (e.g. d-mannitol to adjust the osmotic pressure to be the same as that of blood). Solutions containing over 20 mg TSC/ml of solution can be made this way. This solution can be added to isotonic saline or to other isotonic solutions in order to dilute it and still maintain the proper osmolality.

[2] = Absorption of TSC into the blood stream after intramuscular injection with gamma cyclodextrin; format: in vivo; conditions: rats
Text: as §1

[3] = Stability of TSC in formulation as a function of pH; format: physicochemical
Method: Mannitol can be used to adjust osmolality and its concentration varies depending on the concentration of other ingredients. The glycine is held constant. […] The use of glycine is compatible with lyophilization. Alternatively, the TSC and cyclodextrin is formulated using a 50 mM bicarbonate buffer in place of the glycine.

TSC content of solution ([1]; formulated with a cyclodextrin and mannitol): over 20 mg TSC/ml of solution | absorption into the blood stream when injected intramuscularly [2]: Absorption is quick | stability versus pH [3]: more stable at higher pHs
SMILES: CC(/C=C/C=C(\C)C(=O)[O-])=C\C=C\C=C(C)\C=C\C=C(/C)C(=O)[O-].[Na+].[Na+] [TSC, trans sodium crocetinate]
TSC content of aqueous solution ([1]; TSC and gamma-cyclodextrin, aqueous solution): ≤ 44 milligrams of TSC per ml of solution
